The source of these data is patent US20210186927A1, “COMBINATION PRODUCT FOR THE INDUCTION AND/OR MAINTENANCE OF GENERAL ANESTHESIA” (priority 2018, published 2021).

Like-named read-outs stand apart in the source and are kept apart here.

In one assay the test system is healthy humans. To be noted: cited from earlier work.
For assay [1], the system named is rats. To be noted: 0.25-2 mg/kg i.p.; cited from earlier work.
A further assay deals with MOR (Homo sapiens, UniProt P35372). Particulars: cited from earlier work.
Assay [2] has as its system male Sprague Dawley rats. Format: in vivo, rat. On the procedure:
The spontaneous righting reflex: Before and at a series of set time points following each bolus injection, the animal was placed on its back and righting time measured. Righting normally occurs under 15 seconds. Whenever the animal was unable to right itself, it was considered that the spontaneous righting reflex had been lost and unconsciousness induced.
Duration of unconsciousness: The time lapse since the loss of the spontaneous righting reflex until its recovery was recorded and considered a measurement of the overall duration of unconsciousness.

Assay [3] concerns rats. Particulars: cited from earlier work.
In assay [4] the test system is rats. To be noted: 10 mg/kg i.p.; cited from earlier work.
For assay [5], the system named is mice. Particulars: 0.5-2 mg/kg i.p.; cited from earlier work.
The subject of assay [6] is male Sprague Dawley rats. Format: in vivo, rat. As for the experimental part:
Decreases in spontaneous locomotor and/or exploratory activity: Immediately after administration of each bolus injection, the animal was assessed for any changes in spontaneous locomotor and/or exploratory activity. […] If the spontaneous righting reflex (see here below) had not been lost after dosing but sedation was observed, the animal was monitored at regular intervals to assess the duration of the induced sedation.
This is another data set of the same source.

A further assay concerns the target KOR (Homo sapiens, UniProt P41145). Particulars: cited from earlier work.
The target of another assay is DOR (Homo sapiens, UniProt P41143). To be noted: cited from earlier work.
The next assay has as its system Rhesus monkeys. Particulars: cited from earlier work.
In assay [7] the test system is mice. Particulars: cited from earlier work.
For assay [8], the system named is rats. To be noted: 1.0-3.0 mg/kg i.p.; cited from earlier work.
The test system of another assay is monkeys. Particulars: drug-discrimination study; cited from earlier work.

Chain of KOR (P41145 whole entry): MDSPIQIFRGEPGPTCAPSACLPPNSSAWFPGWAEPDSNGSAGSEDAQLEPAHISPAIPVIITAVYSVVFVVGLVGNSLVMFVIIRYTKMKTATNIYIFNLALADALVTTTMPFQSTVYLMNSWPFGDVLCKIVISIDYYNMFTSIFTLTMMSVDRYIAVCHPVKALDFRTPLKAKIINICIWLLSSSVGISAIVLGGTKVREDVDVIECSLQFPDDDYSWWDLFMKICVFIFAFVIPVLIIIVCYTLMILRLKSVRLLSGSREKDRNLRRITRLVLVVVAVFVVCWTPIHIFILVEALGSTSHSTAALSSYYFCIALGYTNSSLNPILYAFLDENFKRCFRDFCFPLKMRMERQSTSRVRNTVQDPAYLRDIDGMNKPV
Chain of DOR (P41143 whole entry): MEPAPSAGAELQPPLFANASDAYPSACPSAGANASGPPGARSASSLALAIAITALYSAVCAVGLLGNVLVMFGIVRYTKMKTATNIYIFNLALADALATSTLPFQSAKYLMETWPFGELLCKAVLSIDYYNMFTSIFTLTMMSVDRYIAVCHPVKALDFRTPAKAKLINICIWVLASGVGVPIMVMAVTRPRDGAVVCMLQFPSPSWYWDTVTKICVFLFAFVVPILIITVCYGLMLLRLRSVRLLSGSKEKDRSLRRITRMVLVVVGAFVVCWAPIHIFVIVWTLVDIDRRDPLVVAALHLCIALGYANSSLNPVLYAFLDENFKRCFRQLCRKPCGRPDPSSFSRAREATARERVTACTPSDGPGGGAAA
Chain of MOR (P35372 whole entry): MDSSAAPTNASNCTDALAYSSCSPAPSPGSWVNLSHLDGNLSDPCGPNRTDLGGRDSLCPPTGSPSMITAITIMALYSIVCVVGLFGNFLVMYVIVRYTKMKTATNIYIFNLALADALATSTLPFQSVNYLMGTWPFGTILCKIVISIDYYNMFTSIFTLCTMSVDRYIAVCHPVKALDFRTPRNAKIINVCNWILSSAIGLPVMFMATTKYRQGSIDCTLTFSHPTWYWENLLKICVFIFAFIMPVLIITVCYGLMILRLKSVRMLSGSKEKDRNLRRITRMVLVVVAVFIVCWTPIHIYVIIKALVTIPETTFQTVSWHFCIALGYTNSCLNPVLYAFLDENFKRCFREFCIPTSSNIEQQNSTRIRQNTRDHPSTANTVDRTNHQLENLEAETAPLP

Consider `COC(=O)[C@@H]1C[C@H](OC(C)=O)C(=O)[C@H]2[C@@]1(C)CC[C@H]1C(=O)O[C@H](c3ccoc3)C[C@]21C` [SA, Salvinorin A], for which, in the assay on healthy humans (acute administration to humans), the “acute effects in humans” value is “intense visual and auditory hallucinations without loss of consciousness”. Besides, in the assay with healthy humans (humans), the “dose at which the effects are already noticeable” value is 0.25 mg. Besides, the “psychometric measurements of sedation (PCAG subscale of the Addiction Research Center Inventory)” value in the assay on healthy humans (humans) was “no significant dose-dependent increases”. In the assay on rats [1], the “immobility in the forced swimming test” value is listed as “increased immobility”. The “affinity for the MOR” value on MOR was “no affinity”. The “loss of consciousness or general anesthesia” value (shortened to “loss”) in the assay with male Sprague Dawley rats [2] (SA alone 6.2 mg/kg i.v.), with male Sprague Dawley rats [2] (SA alone 6.4 mg/kg i.p.), in the assay on male Sprague Dawley rats [2] (SA alone 12.0 mg/kg i.v.) and in the assay with male Sprague Dawley rats [2] (SA alone 12.9 mg/kg i.p.) was “no loss of consciousness or general anesthesia” each time. Further, the “righting time (spontaneous righting reflex)” value (“righting time” below) with male Sprague Dawley rats [2] (SA alone 6.2 mg/kg i.v., 10 minutes after injection) was 8 s; in the assay with male Sprague Dawley rats [2] (SA alone 6.4 mg/kg i.p., 1-40 min after injection) it was 1 to 2 s; with male Sprague Dawley rats [2] (SA alone 12.0 mg/kg i.v., 5 minutes after injection) it was 12 s; with male Sprague Dawley rats [2] (SA alone 12.9 mg/kg i.p., 1-40 min after injection), 1 to 2 s. Also, the “effect on spontaneous locomotor activity” value in the assay on rats [3] (0.25-2 mg/kg i.p., rats) is on record as “did not affect spontaneous locomotor activity”. The “effect on locomotor activity” value was “had no effects” with rats [3] (0.4 and 0.64 mg/kg subcutaneously, rats); “increased locomotor activity” in the assay on rats [3] (repeated daily injections of 2 mg/kg i.p.); “no effect” in the assay with rats [3] (single 2 mg/kg i.p.). For the same compound, the results for the antinociceptive effects result in the assay on rats [4] and with mice [7] (0.5-4 mg/kg intraperitoneally) were “no effects” and “dose-dependent antinociceptive effects”, respectively. In the assay on mice [5], the sedation and coordination result is “mild sedation and a loss of coordination”. Further, the “time at which locomotor and exploratory activity were comparable to pre-injection values” in the assay with male Sprague Dawley rats [6] (SA alone 6.2 mg/kg i.v.) and in the assay on male Sprague Dawley rats [6] (SA alone 12.0 mg/kg i.v.) was 30 min throughout. Besides, the sedation entry with male Sprague Dawley rats [6] (SA alone 6.2 mg/kg i.v., Example 2 Rat number 2) is “mild sedation”; with male Sprague Dawley rats [6] (SA alone 6.4 mg/kg i.p., Example 1 Rat number 2), “light sedation”; in the assay on male Sprague Dawley rats [6] (SA alone 12.0 mg/kg i.v., Example 2 Rat number 3), “mild sedation”; in the assay on male Sprague Dawley rats [6] (SA alone 12.9 mg/kg i.p., Example 1 Rat number 3), “slight sedation of longer duration”; in the assay on Rhesus monkeys (0.032 mg/kg i.v.) it was “sedative effects”; with Rhesus monkeys (0.032 mg/kg s.c.) it was “did not lead to overt sedation”. In addition, the sedation entry in the assay with Rhesus monkeys (i.v., maximum dose of 0.1 mg/kg) is “sedative effects”. Also, the results for the “time at which locomotor and exploratory activity were comparable to baseline” value in the assay on male Sprague Dawley rats [6] (SA alone 6.4 mg/kg i.p.) and in the assay with male Sprague Dawley rats [6] (SA alone 12.9 mg/kg i.p.) were 30 min and 40 min, respectively. Further, the “affinity and potency values at the KOR” value at KOR is recorded as “nanomolar range”. In addition, on KOR, the “type of activity at the KOR” value is listed as “full agonist”. Also, the “affinity for the DOR” value at DOR is on record as “no affinity”. For the same compound, the values for the analgesic effects result in the assay with mice [7] (7.5 μg intracerebroventricularly) and in the assay on mice [7] (5 mg/kg i.p.) were “active” and “no analgesic effects”, respectively. The “changes in response rates” value in the assay with rats [8] is listed as “No significant changes”. In addition, the “generalization between SA and ketamine” value in the assay on monkeys is on record as “did not find that any generalization between the two drugs is applicable”.

For `CN1C(=O)CN=C(c2ccccc2)c2cc(Cl)ccc21` [diazepam, Diazepam, reference compound], in the assay on male Sprague Dawley rats [2] (rat, in vivo), the “loss” value is “did not induce loss of consciousness or general anesthesia” and the “righting time” value lay in the range of 2 to 3 s. Also, in the assay with male Sprague Dawley rats [6] (rat, in vivo), the sedation result was “clear sedation”; the “time of full recovery of spontaneous locomotor and exploratory activity” value is listed as 1 h; the “time of partial recovery of spontaneous locomotor and exploratory activity” value is 30 min; the “time to decrease in spontaneous locomotor and exploratory activity” value came out at 1 min. Moreover, the time to sedation result with male Sprague Dawley rats [6] (rat, in vivo) is given as “immediately after the end of the injection”.

`Cc1cccc(C(C)c2cnc[nH]2)c1C` (centres unmarked) [medetomidine, Medetomidine, reference compound]: in the assay with male Sprague Dawley rats [2] (rat, in vivo), the “loss” value is “did not induce loss of consciousness or general anesthesia” and the “righting time” value lay in the range of 2 to 3 s. For the same compound, in the assay with male Sprague Dawley rats [6] (rat, in vivo), the sedation result is recorded as “sedative effect”, the sedation lasted until is 30 min and the “time to sedation after the injection” value stood at 30 s.
